The values below come from patent US20160024083A1, “COMPOUNDS AND METHODS FOR TREATING CANCERS” (HEALTH RESEARCH, INC., priority 2013, published 2016).

The term CC50 denotes the concentration that lowers cell viability or growth by half. Higher therefore signals better tolerance by the cells.

For one data set, the system named is Mdm2. Description: Mdm2 accumulation, Western Blot. The data set is classed as cell-based. The conditions noted are these: MCF7 cells with functionally inactive p53 (R175H, GSE56). The protocol:
Results of Western Blot analysis: CWR22r cells were treated with 1 uM c52 for indicated time intervals.
(§1) Also tested was the hypothesis that degradation of androgen receptor in prostate and breast cancer cells may be due to p53 induced accumulation of mdm2, which is also ubiquitin ligase for androgen receptor (FIG. 15). p53 was inactivated in several cell lines using different approaches what led to the blockade of mdm2 accumulation after c52 treatment. However androgen receptor was still degraded in c52 treated cells even in the absence of p53 activation and mdm2 accumulation (FIG. 16).

A further data set has as its system CWR22R tumors. Description: In vivo efficacy, subcutaneous xenografts of CWR22R cells in SCID mice. The protocol: (§2) We tested these compounds in an in vivo efficacy experiment using model of CRPC in SCID mice, CWR22R. Two compounds, PLA1079 and 1125, which were synthesized in the amount of 500 mg were tested in full scale experiment with either 5 IV daily injections or 10 IP daily injections. After 5 IP or IV injections intra-tumor concentration of the compounds were measured in few mice from this experiment.
(§3) Two other compounds, PLA1148 and 1098 (PK testing in FIGS. 8 and 9) were tested in a small scale efficacy experiment. Upon PK testing of the compound PLA1148 one mouse was injected twice with 10 min interval. However the concentration of the drug in plasma of this mouse was not twice, but >4 times higher than in mice injected once. […] It was decided to utilize this observation in an attempt to get higher plasma and tumor concentration of both compounds. Therefore in the pilot efficacy experiment in the same model of CWR22R cells mice were treated with 2 IP injections with 10 minute interval. Treatment with PLA1098 was carried out for two days. […] However this is so far the highest concentration found in tumor.
Pilot efficacy experiments were run for compounds: PLA1163, PLA1148 using the same model of subcutaneous xenografts of CWR22R cells in SCID mice (FIGS. 18 and 19).

A short description of data set [1]: Tissue drug concentrations (tumor, liver, plasma) in treated CWR22R tumor-bearing mice. It counts as in vivo. As to the method:
as §2
as §3, with “tumor. […]” for “tumor.”
(§4) LC50 data of in vitro 72 hours cytotoxicity assay are included in this table for comparison.

Data set [2] in a line: Plasma concentration (PK) after intravenous and intraperitoneal injections. It counts as in vivo. The conditions noted are these: for plasma concentration time course: after IV and IP injections; for plasma concentration time course / bioavailability through IP injection: 50-100 mg/kg; for bioavailability through IP injection: plasma concentrations similar or even higher after IP than IV.

The next data set concerns Caveolin 1. Description: Caveolin 1 expression in sensitive versus resistant cells. The data set is classed as cell-based. The following applies: MDA MB 231 and MCF7 cells. As to the method:
FIG. 12. Expression of Caveolinl in sensitive versus resistant cells. Caveolinl is expressed in resistant MDA MB 231 cells, but not in sensitive MCF7 cells.
Analysis of gene expression among 50 breast cancer cell lines differed in sensitivity as well as shRNA screening of resistant breast cancer cells identified Calveolin (FIG. 11) as a potential gene associated with resistance to c52. mRNA expression of Calveolin1 was tested among our sensitive and resistant cells as well as in response to c52 treatment. As expected Calveolin1 was expressed only in resistant cells, however it was not changed upon c52 treatment (FIG. 12). […] Calveolin1 was cloned in lentiviral expression vector and are now testing if overexpression of Calveolin1 in sensitive cells will make them resistant to c52 treatment.

The test system of a further data set is androgen receptor. Description: Androgen receptor level / degradation in cells. It counts as cell-based. The following applies: CWR22r or MCF7 cells with inhibited p53 activity.
Text: as §1

Another data set concerns CWR22R. Description: cells. It counts as cell-based. As to the method: FIG. 21. Toxicity of PLA1055 to CWR22R cells in vitro depending on time of incubation. PLA1055 was added to CWR22R in full range of concentrations for the periods of time shown on the right. After that drug containing media were changed for drug free and survival of cells was detected at 72 hours after start of treatment using Alamar Blue assay (Promega).
This example provides a table (below) of the compounds of the present disclosure and their activity towards four different cell lines (i.e., CWR22R, HeLa, PC3, and MDA-MB-231). The IC50 for inhibition of growth is divided into 4 categories: A<1 μM, B 1-5 μM, C 5-20 μM, D>20 μM.
All compounds were tested for toxicity using 4 cells lines, target cells—CWR22R and non-target cells, Hela, PC3 and MDA-MB-231 (FIGS. 1A-F).
as §4
An in vitro experiment was run to detect the concentration of PLA1055 needed to kill all tumor cells in vitro (LC90) during different periods of time (30 minutes-72 hours, FIG. 21)).

The subject of the next data set is p21. Description: p21 expression upon treatment. The following applies: sensitive cells. It counts as cell-based.
For data set [3], the system named is presumable target protein. Description: DARTS (Drug Affinity Responsive Target Stability) assay in CWR22r lysates. The following applies: protein lysates from CWR22r cells. It counts as binding. As to the method:
FIG. 24. DARTS (Drug Affinity Responsive Target Stability) assay was performed using c52 and PLA1118. According to this assay these compounds are capable of protecting presumable target protein from protease degradation. Protein lysates from sensitive CWR22r cells were incubated with or without the drug and subsequently digested with the indicated concentration of pronase. A. c52 was used (lane T-treated, M-marker) with indicated concentrations of pronase; ability of c52 to protect its target from protease cleavage was judged based on presence of protein band in the treated lane vs the untreated (UT) control.
Target identification through affinity chromatography and sensitivity to proteolysis methods was undertaken. […] These bands were excised from gel and sent for protein sequencing. (FIG. 24).

Data set [4] in a line: Toxicity / side effects in treated mice. It counts as in vivo. As to the method:
as §3
This compound may be also potentially promising.

Data set [5] is described as follows: Solubility for in vivo administration. The data set is classed as physicochemical. The conditions noted are these: tested for PK using IP injection of the drug in suspension.
Where [6] appears, read: one mouse, 24 hours after injections.

For the compound `CC(=O)c1ccc2c(c1)c1cc(C(C)=O)ccc1n2CCNC(C)C` [CBL 137, reference compound], the Mdm2 level result in the data set on Mdm2 is given as “Mdm2 is no longer overexpressed”.
As for `CCCn1c2ccccc2c2cc(-c3nnco3)ccc21` [PLA1079], the in vivo efficacy result in the data set with CWR22R tumors (CWR22R in SCID mice, 5 IV daily injections or 10 IP daily injections) was “absence of in vivo efficacy”. Moreover, the “Tumor concentration” value in [1] (100 mg/kg, IP/IV) is 24 to 48 nM. Further, in [2], the “plasma concentration time course” value was “fast reduction of concentration during the first hour” and the “bioavailability through IP injection” value is on record as “very high”. Besides, the “Caveolin1 expression upon treatment” value with Caveolin 1 is on record as “did not change levels of Caveolinl expression”. Moreover, in the data set on Mdm2, the Mdm2 level entry was “Mdm2 is no longer overexpressed”. Besides, the AR level result with androgen receptor was “AR is being degraded”. For the same compound, in the data set on CWR22R, the midpoint of cytotoxicity, the CC50, lay at 0.12 µM. Also, the p21 expression result in the data set on p21 is “overexpression of p21 in sensitive cells”.
With `CCCn1c2ccccc2c2c3c(ccc21)C(=O)N(C)C3` [PLA1098], in the data set with CWR22R tumors (CWR22R, 2 IP injections with 10 minute interval for two days, 12 days after treatment), the “tumor volume and tumor weight vs vehicle control” value was “certain reduction of tumor volume and tumor weigh in the 1098 treated group vs vehicle control, but not statistically significant”. Moreover, the in vivo efficacy result in the data set on CWR22R tumors (summary statement) was “evidence of in vivo efficacy”. Besides, the “protection of target protein from pronase degradation” value in data set [3] was “protected their targets from degradation”. In [1] (100 mg/kg, IP), the “Liver” value worked out at 0 nM and the “Tumor concentration” value was 23 to 25 nM. In data set [1] (2 tested tumors, 24 hours after last injection), the Intratumor concentration stood at 25 nM. Besides, in data set [1] (24 hours after last injection), the compound in liver result is “no detectable” and the compound in plasma entry is “no detectable”. In data set [2], the “plasma concentration time course” value is “fast reduction of concentration during the first hour” and the “bioavailability through IP injection” value is given as “very high”. In [4] (2 IP injections with 10 minute interval, two days), the “side effects during treatment” value is given as “no signs of side effects”. Also, the signs of toxicity entry in data set [4] (summary statement) is listed as “without any signs of toxicity”. This compound also yielded a CC50 in the data set with CWR22R of 0.04 µM.
As to `CCCn1c2ccccc2c2c3cc[nH]c(=O)c3ccc21` [PLA1099], in data set [5], the solubility entry is “poorly soluble”.
Regarding `CCCn1c2ccccc2c2cc(S(C)(=O)=O)ccc21` [PLA1118], the “protection of target protein from pronase degradation” value in data set [3] is “faintly”.
As for `O=c1[nH]ccc2c1ccc1c2c2ccccc2n1CCCF` [PLA1121], the solubility result in data set [5] is recorded as “poorly soluble”.
As to `O=C1NCCc2c1ccc1c2c2ncccc2n1CCCF` [PLA1148], the “tumors of mice that died on the 5th day” value with CWR22R tumors (CWR22R, two mice) is recorded as “almost undetectable tumors”. In addition, in data set [1] (50 mg/kg, IP), the “Liver” value is reported as 50 nM and the “Tumor concentration” value fell in the range of 0 to 90 nM. Also, in data set [1] (48 hours after treatment), the Tumor concentration was 84 nM and the liver concentration is recorded as 49 nM. Further, the plasma concentration result in data set [1] (48 hours after treatment, compared with 24 hours (8.5 nM)) is on record as “The same plasma concentration”. Besides, in data set [1] (setting [6]), the drug in liver result is given as “no drug detected”, the drug in tumor entry is reported as “no drug detected” and the plasma concentration is 8.5 nM. Moreover, in data set [2], the “plasma concentration time course” value is “fast reduction of concentration during the first hour” and the “bioavailability through IP injection” value is “very high”. For the same compound, the “plasma concentration of mouse injected twice versus mice injected once” value in [2] (two injections with 10 min interval) is over 4 times. In data set [4] (2 IP injections with 10 minute interval, one day, symptoms suggested acute liver failure), the acute toxicity result is listed as “acute toxicity developed quickly after injection”. Also, in [4] (after one day of injections), the mortality is 2 mice died next day and 3 other during next 5 days.
For the compound `O=C1NCCOc2c1ccc1c2c2ccccc2n1CCCF` [PLA1163], in [1] (40 mg/kg, IP), the “Liver” value turned out to be 307 nM and the “Tumor concentration” value fell in the range of 4 to 10 nM. For the same compound, the solubility entry in [5] was “poorly soluble”. In addition, the CC50 with CWR22R stood at 0.2 µM.
